Molecular target: T1, hFASN enzyme (full length) (Homo sapiens, UniProt P49327)
T1 construct: 10 μL hFASN enzyme (full length, 300 ng, purified in house); made in house
Assay: Fatty Acid Synthase (FASN) inhibition scintillation proximity assay
Format: biochemical
Conditions: for inhibition at 10 µM: read-out: Human FASN % inhibition @ 10 μM, 10 μM test compound; for IC50: read-out: Human FASN pIC50 (converted)
In short: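 Read-out relies on hydrophobic ³H-palmitate product, formed from ³H-acetyl-CoA and malonyl-CoA, binding streptavidin imaging beads, measured at 610±20 nm after at least 24 h. Full-length enzyme (300 ng) in phosphate buffer pH 7.5 with DTT; eight compound concentrations, 0.01–30 μM.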

T1 sequence (P49327 whole entry): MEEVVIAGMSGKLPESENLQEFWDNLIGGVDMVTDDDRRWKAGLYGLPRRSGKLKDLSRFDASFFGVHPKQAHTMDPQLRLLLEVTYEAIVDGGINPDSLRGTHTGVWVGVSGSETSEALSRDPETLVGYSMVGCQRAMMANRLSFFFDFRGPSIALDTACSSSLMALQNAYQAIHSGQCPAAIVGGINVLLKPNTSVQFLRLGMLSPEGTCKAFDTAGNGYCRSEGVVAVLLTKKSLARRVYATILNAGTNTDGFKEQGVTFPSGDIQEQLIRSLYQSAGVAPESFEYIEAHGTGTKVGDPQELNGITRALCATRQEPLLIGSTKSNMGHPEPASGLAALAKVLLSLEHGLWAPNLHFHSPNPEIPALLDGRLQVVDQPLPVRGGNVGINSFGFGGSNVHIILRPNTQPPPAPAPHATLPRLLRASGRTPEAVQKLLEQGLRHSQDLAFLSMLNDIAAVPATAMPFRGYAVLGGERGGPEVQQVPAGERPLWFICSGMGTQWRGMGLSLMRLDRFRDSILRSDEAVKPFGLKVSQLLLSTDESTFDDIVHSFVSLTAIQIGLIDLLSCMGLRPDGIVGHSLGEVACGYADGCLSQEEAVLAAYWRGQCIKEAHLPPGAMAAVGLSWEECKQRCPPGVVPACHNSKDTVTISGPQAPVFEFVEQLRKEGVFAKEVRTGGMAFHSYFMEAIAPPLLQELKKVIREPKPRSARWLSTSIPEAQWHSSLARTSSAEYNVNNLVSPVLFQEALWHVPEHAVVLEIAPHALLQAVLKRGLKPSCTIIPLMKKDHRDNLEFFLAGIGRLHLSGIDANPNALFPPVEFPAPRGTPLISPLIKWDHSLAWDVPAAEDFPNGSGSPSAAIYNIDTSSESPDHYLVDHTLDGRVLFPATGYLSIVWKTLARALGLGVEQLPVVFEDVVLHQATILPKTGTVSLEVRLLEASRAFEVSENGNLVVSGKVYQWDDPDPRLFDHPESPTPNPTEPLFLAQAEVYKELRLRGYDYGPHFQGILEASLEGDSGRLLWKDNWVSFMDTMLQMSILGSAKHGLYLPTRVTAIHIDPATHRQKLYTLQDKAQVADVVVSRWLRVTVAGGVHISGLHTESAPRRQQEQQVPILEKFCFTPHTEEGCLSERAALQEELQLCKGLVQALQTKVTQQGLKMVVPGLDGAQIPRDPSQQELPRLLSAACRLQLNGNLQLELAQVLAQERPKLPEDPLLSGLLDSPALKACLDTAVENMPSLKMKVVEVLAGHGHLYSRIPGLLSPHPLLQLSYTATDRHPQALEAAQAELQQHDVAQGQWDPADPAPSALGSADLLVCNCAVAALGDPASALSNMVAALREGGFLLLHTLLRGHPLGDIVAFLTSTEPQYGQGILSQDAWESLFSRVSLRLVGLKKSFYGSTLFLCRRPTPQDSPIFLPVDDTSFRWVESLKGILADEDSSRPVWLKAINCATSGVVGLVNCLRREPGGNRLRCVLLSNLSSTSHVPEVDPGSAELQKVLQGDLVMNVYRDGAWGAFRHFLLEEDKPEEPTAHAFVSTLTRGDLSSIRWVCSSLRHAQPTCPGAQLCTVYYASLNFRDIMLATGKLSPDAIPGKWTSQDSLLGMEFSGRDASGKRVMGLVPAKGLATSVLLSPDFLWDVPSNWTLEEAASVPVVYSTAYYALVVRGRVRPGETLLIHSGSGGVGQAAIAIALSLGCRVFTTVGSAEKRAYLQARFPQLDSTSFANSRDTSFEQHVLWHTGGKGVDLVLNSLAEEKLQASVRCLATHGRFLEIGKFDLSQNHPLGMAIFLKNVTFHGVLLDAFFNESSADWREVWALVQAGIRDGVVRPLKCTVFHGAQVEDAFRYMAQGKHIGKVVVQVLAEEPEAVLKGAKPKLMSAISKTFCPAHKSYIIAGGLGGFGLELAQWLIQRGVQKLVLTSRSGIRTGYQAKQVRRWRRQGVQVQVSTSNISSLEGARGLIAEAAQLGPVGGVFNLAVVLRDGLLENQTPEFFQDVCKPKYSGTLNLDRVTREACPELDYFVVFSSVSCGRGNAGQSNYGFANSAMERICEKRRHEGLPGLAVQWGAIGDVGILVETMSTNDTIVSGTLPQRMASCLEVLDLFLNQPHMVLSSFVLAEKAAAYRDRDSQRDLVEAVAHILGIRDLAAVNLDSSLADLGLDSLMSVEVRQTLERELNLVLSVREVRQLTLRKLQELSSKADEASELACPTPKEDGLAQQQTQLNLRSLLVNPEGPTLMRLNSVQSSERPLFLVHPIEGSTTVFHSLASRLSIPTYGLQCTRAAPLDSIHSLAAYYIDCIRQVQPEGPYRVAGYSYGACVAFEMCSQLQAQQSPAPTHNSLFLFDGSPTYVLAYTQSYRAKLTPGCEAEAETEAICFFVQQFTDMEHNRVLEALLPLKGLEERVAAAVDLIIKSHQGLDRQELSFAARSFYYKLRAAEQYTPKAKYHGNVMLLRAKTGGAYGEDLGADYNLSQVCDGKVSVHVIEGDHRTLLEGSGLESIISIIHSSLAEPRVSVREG

SMILES	inhibition at 10 µM [%]	IC50 [µM]	Human FASN pIC50 (hFASN enzyme, full length, "~" means standard error of the pIC50 is larger than 0.5)
O=C(C1CC1)N1CC(CN2C(=O)C3(CCN(C(=O)C(F)(F)F)CC3)N=C2c2ccc(-c3ccc4c(ccn4C(=O)C(F)(F)F)c3)cc2)C1 [compound 952, 3-((1-(cyclopropanecarbonyl)azetidin-3-yl)methyl)-8-(2,2,2-trifluoroacetyl)-2-(4-(1-(2,2,2-trifluoroacetyl)-1H-indol-5-yl)phenyl)-1,3,8-triazaspiro[4.5]dec-1-en-4-one]	45	> 10	
Cn1cc(-c2ccc(-c3ccc(C4=NC5(CCOC5)C(=O)N4CC4CN(C(=O)c5nccs5)C4)cc3)cc2)cn1 (stereo not shown) [compound 901, 2-(4′-(1-methyl-1H-pyrazol-4-yl)-[1,1′-biphenyl]-4-yl)-3-((1-(thiazol-2-carbonyl)azetidin-3-yl)methyl)-7-oxa-1,3-diazaspiro[4.4]non-1-en-4-one]	2	> 10	
CC(C)(O)c1ccc(-c2ccc(C3=NC4(CC4)C(=O)N3CC3CN(C(=O)C4CC4)C3)cc2)cn1 [compound 797, 6-((1-(cyclopropanecarbonyl)azetidin-3-yl)methyl)-5-(4-(6-(2-hydroxypropan-2-yl)pyridin-3-yl)phenyl)-4,6-diazaspiro[2.4]hept-4-en-7-one]	1	> 10	
CN(C)c1cccc(-c2ccc(C3=NC4(CC4)C(=O)N3C[C@@H]3CCN(C(=O)C4CC4)C3)cc2)c1 [compound 145, 6-{[(3R)-1-(Cyclopropylcarbonyl)pyrrolidin-3-yl]methyl}-5-[3′-(dimethylamino)biphenyl-4-yl]-4,6-diazaspiro[2.4]hept-4-en-7-one]	106	0.398	
O=C(C1CC1)N1CCC(CN2C(=O)C3(CC3)N=C2c2ccc(-c3ccc(-c4ccncc4)cc3)cc2)CC1 [compound 61, 6-{[1-(Cyclopropylcarbonyl)piperidin-4-yl]methyl}-5-(4′-pyridin-4-ylbiphenyl-4-yl)-4,6-diazaspiro[2.4]hept-4-en-7-one]	63.2	3.98	
O=C(C1CC1)N1CC[C@@H](CN2C(=O)C3(CC3)N=C2c2ccc(-c3cncc(Cl)c3)cc2)C1 [compound 802, (R)-5-(4-(5-chlorppyridin-3-yl)phenyl)-6-((1-(cyclopropanecarbonyl)pyrrolidin-3-yl)methyl)-4,6-diazaspiro[2.4]hept-4-en-7-one]	24	> 10	
Cc1cc(C2=NC3(CC3)C(=O)N2CC2CN(C(=O)C3CC3)C2)ccc1-c1ccc2oc(C)c(C)c2c1 [compound 814, 6-((1-(cyclopropanecarbonyl)azetidin-3-yl)methyl)-5-(4-(2,3-dimethylbenzofuran-5-yl)-3-methylphenyl)-4,6-diazaspiro[2.4]hept-4-en-7-one]	39	> 10	
Cc1cc(-c2cncc(Cl)c2)ccc1C1=NC2(CCCC2)C(=O)N1C[C@@H]1CCN(C(=O)C2CC2)C1 [compound 855, (R)-2-(4-(5-chloropyridin-3-yl)-2-methylphenyl)-3-((1-(cyclopropanecarbonyl)pyrrolidin-3-yl)methyl)-1,3-diazaspiro[4.4]non-1-rn-4-one]	52	> 10	
O=C(C1CC1)N1CCC(CN2C(=O)C3(CC3)N=C2c2ccc(-c3cccnc3)cc2)CC1 [compound 6, 6-{[1-(Cyclopropylcarbonyl)piperidin-4-yl]methyl}-5-(4-pyridin-3-ylphenyl)-4,6-diazaspiro[2.4]hept-4-en-7-one]	61.6	7.24	
Cn1nccc1-c1ccc(C2=NC3(CC3)C(=O)N2CC2CCN(C(=O)C3CC3)CC2)cc1 [compound 8, 6-{[1-(Cyclopropylcarbonyl)piperidin-4-yl]methyl}-5-[4-(1-methyl-1H-pyrazol-5-yl)phenyl]-4,6-diazaspiro[2.4]hept-4-en-7-one]	5.1	> 10	
O=C(C1CC1)N1CC(CN2C(=O)C3(CC3)N=C2c2ccc(-c3cnc4ncccc4c3)cc2)C1 [compound 799, 5-(4-(1,8-baphthyridin-3-yl)phenyl)-6-((1-(cyclopropanecarbonyl)azetidin-3-yl)methyl)-4,6-diazaspiro[2.4]hept-4-en-7-one]	39	> 10	
CC(O)C(=O)N1CC[C@@H](CN2C(=O)C3(CCOC3)N=C2c2ccc(-c3ccc4occc4c3)cc2)C1 (stereo partly drawn) [compound 687, 2-[4-(1-Benzofuran-5-yl)phenyl]-3-{[(3R)-1-(2-hydroxypropanoyl)pyrrolidin-3-yl]methyl}-7-oxa-1,3-diazaspiro[4.4]non-1-en-4-one]	73	2.88	
CC(C)n1cc(-c2ccc(-c3ccc(C4=NC5(CC5)C(=O)N4CC4CN(C(=O)C5CC5)C4)cc3)cn2)cn1 [compound 516, 6-{[1-(Cyclopropylcarbonyl)azetidin-3-yl]methyl}-5-(4-{6-[1-(1-methylethyl)-1H-pyrazol-4-yl]pyridin-3-yl}phenyl)-4,6-diazaspiro[2.4]hept-4-en-7-one]	83	1.17	
Cn1ncc2cc(-c3ccc(C4=NC5(CCOCC5)C(=O)N4C[C@@H]4CCN(C(=O)N5CCCC5)C4)cc3)ccc21 [compound 675]	66	2.82	
COC(=O)N1CC(CN2C(=O)C3(CCOCC3)N=C2c2ccc(-c3ccc(-c4cnn(C)c4)cc3)cc2)C1 [compound 936, methyl 3-((2-(4′-(1-methyl-1H-pyrazol-4-yl)-[1,1′-biphenyl]-4-yl)-4-oxo-8-oxa-1,3-diazaspiro[4.5]dec-1-en-3-yl)methyl)azetidine-1-carboxylate]	7	> 10	
Cn1ncc2cc(-c3ccc(C4=NC5(CC5)C(=O)N4C[C@@H]4CCN(C(=O)C5CC5)C4)s3)ccc21 [compound 430, 6-{[(3R)-1-(Cyclopropylcarbonyl)pyrrolidin-3-yl]methyl}-5-[5-(1-methyl-1H-indazol-5-yl)thiophen-2-yl]-4,6-diazaspiro[2.4]hept-4-en-7-one]	52		5.05
Cn1cc(-c2ccc(-c3ccc(C4=NC5(CCN(CCO)CC5)C(=O)N4CC4CN(C(=O)C5CC5)C4)cc3)cc2)cn1 [compound 772, 3-{[1-(Cyclopropylcarbonyl)azetidin-3-yl]methyl}-8-(2-hydroxyethyl)-2-[4′-(1-methyl-1H-pyrazol-4-yl)biphenyl-4-yl]-1,3,8-triazaspiro[4.5]dec-1-en-4-one]	64	3.98	
O=C(C1CC1)N1CC[C@@H](CN2C(=O)C3(CCN(CCO)CC3)N=C2c2ccc(-c3ccc4occc4c3)cc2)C1 [compound 168, 2-[4-(1-Benzofuran-5-yl)phenyl]-3-{[(3R)-1-(cyclopropylcarbonyl)pyrrolidin-3-yl]methyl}-8-(2-hydroxyethyl)-1,3,8-triazaspiro[4.5]dec-1-en-4-one]	108	0.145	
O=CNc1cc(-c2ccc(C3=NC4(CC4)C(=O)N3CC3CN(C(=O)C4CC4)C3)cc2)ccc1O [compound 54, N-[4′-(6-{[-(Cyclopropylcarbonyl)azetidin-3-yl]methyl}-7-oxo-4,6-diazaspiro[2.4]hept-4-en-5-yl)-4-hydroxybiphenyl-3-yl]formamide]	64.7	4.68	
CS(=O)(=O)N1CC[C@@H](CN2C(=O)C3(CCOCC3)N=C2c2ccc(-c3ccc4cccnc4c3)cc2)C1 [compound 960]	-2	> 10	
